# Results from patent US12018059B2, “Human amylin analog polypeptides and methods of use” (Intarcia Therapeutics, Inc., priority 2018, dated 2024).
# Starred links: 1 amine or outer side, 2 acyl side, 3 side chain; linkers in the order of their positions; H or OH if unused. Positions of bridges follow the written chain, without caps; N, C: chain ends. Non-standard residues stand in square brackets, D forms with d. Residues, ends and D or L forms follow the SMILES beside them. Groups on a side chain read outwards from the residue. *: point of attachment. X3 = O=C(O)CCCCCCCCCCCCCCCCCCC(=O)N[C@@H](CCC(=O)NCOCCOCC(=O)NCOCCOCC(=O)*)C(=O)O; X2 = O=C(O)CCCCCCCCCCCCCCCCC(=O)N[C@@H](CCC(=O)NCOCCOCC(=O)NCOCCOCC(=O)*)C(=O)O; Docosanoyl = CCCCCCCCCCCCCCCCCCCCCC(=O)*; C16 diacid = O=C(O)CCCCCCCCCCCCCCC(=O)*; γGlu = O=C(O)[C@H](CCC(=O)[*:2])N[*:1]; Palmitoyl = CCCCCCCCCCCCCCCC(=O)*; AEEA = NCCOCCOCC(=O)O
# Test: in vivo
# Parameters: species or system Sprague-Dawley rats
# Conditions: rat, iv, 0.033 mg/kg
# Procedure: Peptides were dissolved in sterile saline and administered as a 1-hour intravenous infusion to non-fasted male Sprague-Dawley rats (n=3 per group) via femoral vein cannula at a final dose of 0.033 mg/kg. […] Blood samples (approximately 250 μL) were collected for pharmacokinetic analysis via a jugular vein cannula at 0.25, 0.5, 0.75, 1, 1.17, 1.33, 1.5, 2, 4, 6, 8, 24, 30 and 48 hr post-start of infusion into microtainer tubes containing K2EDTA as anticoagulant and 25 μL of a protease inhibitor cocktail. Plasma was prepared by centrifugation and stored at −80° C. until analysis. The results of this analysis are shown in Table 9 and few exemplars in FIGS. 3a-3b. […]
# A 60 μL aliquot of each plasma sample was placed into to a 96-well plate. To each well was added 6 μL of 0.5% Tween-20. Plates were then vortexed mixed for 10 minutes at 1200 rpm before 180 μL of 0.1% TFA in 2:1 ethanol:acetonitrile containing an appropriate internal standard was added to each well. Plates were vortex mixed for 5 min at 1300 rpm, and then centrifuged for 10 min at 2844×g. Supernatants (180 μL) were placed into a clean 96-well plate and evaporated under a nitrogen stream at 45° C. Residues were reconstituted in 80 μL of 20% acetonitrile (aq) containing 0.1% formic acid.
# A […] aliquot of each plasma sample was diluted with […] of 10 mM ammonium acetate (pH 6.8) containing an appropriate internal standard and loaded onto an Oasis WCX microElution plate (Waters Corporation, Milford, MA) that had been pre-conditioned with […] of methanol and […] of deionized water. Samples were washed with […] of 5% ammonium hydroxide (aq) followed by […] of 20% acetonitrile in water. The analyte was eluted with […] of 5% formic acid in 75:25 acetonitrile:water. The eluent was dried under a nitrogen stream. Residues were reconstituted in 80 μL of 20% acetonitrile (aq) containing 0.1% formic acid.
# All calibration standards were prepared in control rat plasma containing K2EDTA and protease inhibitor cocktail.
# Samples and standards were analyzed by TurbolonSpray™ UPLC-MS/MS using a system consisting of a CTC HTS PAL auto-injector (Leap, Carrboro, NC), an Agilent Infinity 1290 system with column oven (Palo Alto, CA), a Valco switching valve (Houston, TX), and either an AB Sciex API 5600 TripleTOF™ or Sciex API 4000QTrap mass spectrometer (Framingham, MA). Samples were injected onto a 2.1×50 mm reverse phase C18 analytical column, typically a Waters CORTECS UPLC C18+, 1.6 μm (Waters Corporation, Milford, MA) or similar. […] Initial conditions consisted of 90% A and 10% B. The organic component was increased to 95% B over a period of 3-4 minutes, depending on the peptide. Typical flow rates were 600 μL/min. The column temperature was held constant at 40 or 50° C. Peptides were quantified by monitoring one or more product ions produced from a multiply charged parent ion.
Vd,clearance,half-life,Compound
0.128 L/kg,0.0948 mL/min/kg,19.5 h,CC[C@H](C)[C@H](NC(=O)[C@@H]1CCCN1C(=O)CNC(=O)[C@H](Cc1ccccc1)NC(=O)[C@H](CC(N)=O)NC(=O)[C@H](CC(N)=O)NC(=O)[C@H](CO)NC(=O)[C@H](CO)NC(=O)[C@H](CCCCN)NC(=O)[C@H](CCCCNC(=O)COCCOCNC(=O)COCCOCNC(=O)CC[C@H](NC(=O)CCCCCCCCCCCCCCCCC(=O)O)C(=O)O)NC(=O)[C@H](CC(C)C)NC(=O)[C@H](CCC(=O)O)NC(=O)[C@H](CC(N)=O)NC(=O)[C@H](C)NC(=O)[C@H](CC(C)C)NC(=O)[C@H](CCCNC(=N)N)NC(=O)[C@H](CCC(N)=O)NC(=O)[C@@H](NC(=O)[C@H](C)NC(=O)[C@@H]1CSSC[C@H](NC(=O)[C@@H](N)CO)C(=O)N[C@@H](CC(N)=O)C(=O)N[C@@H]([C@@H](C)O)C(=O)N[C@@H](CO)C(=O)N[C@@H]([C@@H](C)O)C(=O)N1)[C@@H](C)O)C(=O)N[C@@H](CC(C)C)C(=O)N1CCC[C@H]1C(=O)N1CCC[C@H]1C(=O)N[C@H](C(=O)N[C@@H](CCCCN)C(=O)N[C@H](C(=O)NCC(=O)N[C@@H](CO)C(=O)N[C@@H](CCC(=O)O)C(=O)N[C@H](C(=O)N[C@@H](Cc1ccc(O)cc1)C(N)=O)[C@@H](C)O)C(C)C)[C@@H](C)O [Compound A99] (H-SCNTSTCATQRLANELK(X2)KSSNNFGPILPPTKVGSETY-NH2; disulfide 2-7; N-terminus assumed)
0.136 L/kg,0.15 mL/min/kg,11.5 h,CCCCCCCCCCCCCCCC(=O)N[C@@H](CCC(=O)N[C@@H](CCC(=O)N[C@@H](CCC(=O)NCCOCCOCC(=O)NCCOCCOCC(=O)N[C@@H](CCC(=O)NCCCC[C@H](NC(=O)[C@H](CCC(=O)O)NC(=O)[C@H](CC(N)=O)NC(=O)[C@H](C)NC(=O)[C@H](CC(C)C)NC(=O)[C@H](CCCNC(=N)N)NC(=O)[C@H](CCC(N)=O)NC(=O)[C@@H](NC(=O)[C@H](C)NC(=O)[C@@H]1CSSC[C@H](NC(=O)[C@@H](N)CO)C(=O)N[C@@H](CC(N)=O)C(=O)N[C@@H]([C@@H](C)O)C(=O)N[C@@H](CO)C(=O)N[C@@H]([C@@H](C)O)C(=O)N1)[C@@H](C)O)C(=O)N[C@@H](Cc1c[nH]cn1)C(=O)N[C@@H](CCCCN)C(=O)N[C@@H](CO)C(=O)N[C@@H](CO)C(=O)N[C@@H](CC(N)=O)C(=O)N[C@@H](CC(N)=O)C(=O)N[C@@H](Cc1ccccc1)C(=O)NCC(=O)N1CCC[C@H]1C(=O)N[C@H](C(=O)N[C@@H](CC(C)C)C(=O)N1CCC[C@H]1C(=O)N1CCC[C@H]1C(=O)N[C@H](C(=O)N[C@@H](CCCCN)C(=O)N[C@H](C(=O)NCC(=O)N[C@@H](CO)C(=O)N[C@@H](CCC(=O)O)C(=O)N[C@H](C(=O)N[C@@H](Cc1ccc(O)cc1)C(N)=O)[C@@H](C)O)C(C)C)[C@@H](C)O)[C@@H](C)CC)C(=O)O)C(=O)O)C(=O)O)C(=O)O [Compound A19] (H-SCNTSTCATQRLANEK([γGlu-AEEA-AEEA-γGlu-γGlu-γGlu-Palmitoyl])HKSSNNFGPILPPTKVGSETY-NH2; disulfide 2-7; N-terminus assumed)
0.146 L/kg,0.0496 mL/min/kg,36.7 h,CC[C@H](C)[C@H](NC(=O)[C@@H]1CCCN1C(=O)CNC(=O)[C@H](Cc1ccccc1)NC(=O)[C@H](CC(N)=O)NC(=O)[C@H](CC(N)=O)NC(=O)[C@H](CO)NC(=O)[C@H](CO)NC(=O)[C@H](CCCCN)NC(=O)[C@H](Cc1c[nH]cn1)NC(=O)[C@H](CC(C)C)NC(=O)[C@H](CCCCNC(=O)CC[C@H](NC(=O)CC[C@H](NC(=O)COCCOCNC(=O)COCCOCNC(=O)CC[C@H](NC(=O)CCCCCCCCCCCCCCCCCCC(=O)O)C(=O)O)C(=O)O)C(=O)O)NC(=O)[C@H](Cc1ccc(O)cc1)NC(=O)[C@H](C)NC(=O)[C@H](CC(C)C)NC(=O)[C@H](CCCNC(=N)N)NC(=O)[C@H](CCC(N)=O)NC(=O)[C@@H](NC(=O)[C@H](C)NC(=O)[C@@H]1CSSC[C@H](NC(=O)[C@@H](N)CO)C(=O)N[C@@H](CC(N)=O)C(=O)N[C@@H]([C@@H](C)O)C(=O)N[C@@H](CO)C(=O)N[C@@H]([C@@H](C)O)C(=O)N1)[C@@H](C)O)C(=O)N[C@@H](CC(C)C)C(=O)N1CCC[C@H]1C(=O)N1CCC[C@H]1C(=O)N[C@H](C(=O)N[C@@H](CCCCN)C(=O)N[C@H](C(=O)NCC(=O)N[C@@H](CO)C(=O)N[C@@H](CCC(=O)O)C(=O)N[C@H](C(=O)N[C@@H](Cc1ccc(O)cc1)C(N)=O)[C@@H](C)O)C(C)C)[C@@H](C)O [Compound A85] (H-SCNTSTCATQRLAYK([γGlu-γGlu-X3])LHKSSNNFGPILPPTKVGSETY-NH2; disulfide 2-7; N-terminus assumed)
0.273 L/kg,1.72 mL/min/kg,2.14 h,CCCCCCCCCCCCCCCCCCCCCC(=O)N[C@@H](CCC(=O)N[C@@H](CCC(=O)NCCCC[C@@H](NC(=O)[C@H](CCC(=O)O)NC(=O)[C@H](CC(N)=O)NC(=O)[C@H](C)NC(=O)[C@H](CC(C)C)NC(=O)[C@H](CCCNC(=N)N)NC(=O)[C@H](CCC(N)=O)NC(=O)[C@@H](NC(=O)[C@H](C)NC(=O)[C@@H]1CSSC[C@H](NC(=O)[C@@H](N)CO)C(=O)N[C@@H](CC(N)=O)C(=O)N[C@@H]([C@@H](C)O)C(=O)N[C@@H](CO)C(=O)N[C@@H]([C@@H](C)O)C(=O)N1)[C@@H](C)O)C(=O)N[C@@H](Cc1c[nH]cn1)C(=O)N[C@@H](CCCCN)C(=O)N[C@@H](CO)C(=O)N[C@@H](CO)C(=O)N[C@@H](CC(N)=O)C(=O)N[C@@H](CC(N)=O)C(=O)N[C@@H](Cc1ccccc1)C(=O)NCC(=O)N1CCC[C@H]1C(=O)N[C@H](C(=O)N[C@@H](CC(C)C)C(=O)N1CCC[C@H]1C(=O)N1CCC[C@H]1C(=O)N[C@H](C(=O)N[C@@H](CCCCN)C(=O)N[C@H](C(=O)NCC(=O)N[C@@H](CO)C(=O)N[C@@H](CCC(=O)O)C(=O)N[C@H](C(=O)N[C@@H](Cc1ccc(O)cc1)C(N)=O)[C@@H](C)O)C(C)C)[C@@H](C)O)[C@@H](C)CC)C(=O)O)C(=O)O [Compound A124] (H-SCNTSTCATQRLANE[dK]([γGlu-γGlu-Docosanoyl])HKSSNNFGPILPPTKVGSETY-NH2; disulfide 2-7)

Compound,Vd,clearance,half-life
CC[C@H](C)[C@H](NC(=O)[C@@H]1CCCN1C(=O)CNC(=O)[C@H](Cc1ccccc1)NC(=O)[C@H](CC(N)=O)NC(=O)[C@H](CC(N)=O)NC(=O)[C@H](CO)NC(=O)[C@H](CO)NC(=O)[C@H](CCCCN)NC(=O)[C@H](Cc1c[nH]cn1)NC(=O)[C@H](CC(C)C)NC(=O)[C@H](CCCCNC(=O)CCCCCCCCCCCCCCC(=O)O)NC(=O)[C@H](CC(N)=O)NC(=O)[C@H](C)NC(=O)[C@H](CC(C)C)NC(=O)[C@H](CCCNC(=N)N)NC(=O)[C@H](CCC(N)=O)NC(=O)[C@@H](NC(=O)[C@H](C)NC(=O)[C@@H]1CSSC[C@H](NC(=O)[C@@H](N)CO)C(=O)N[C@@H](CC(N)=O)C(=O)N[C@@H]([C@@H](C)O)C(=O)N[C@@H](CO)C(=O)N[C@@H]([C@@H](C)O)C(=O)N1)[C@@H](C)O)C(=O)N[C@@H](CC(C)C)C(=O)N1CCC[C@H]1C(=O)N1CCC[C@H]1C(=O)N[C@H](C(=O)N[C@@H](CCCCN)C(=O)N[C@H](C(=O)NCC(=O)N[C@@H](CO)C(=O)N[C@@H](CCC(=O)O)C(=O)N[C@H](C(=O)N[C@@H](Cc1ccc(O)cc1)C(N)=O)[C@@H](C)O)C(C)C)[C@@H](C)O [Compound A72] (H-SCNTSTCATQRLANK(C16 diacid)LHKSSNNFGPILPPTKVGSETY-NH2; disulfide 2-7),0.172 L/kg,1.54 mL/min/kg,3.44 h
